From patent publication US20210108180A1, “ELECTROCONDUCTIVE DECELLULARIZED EXTRACELLULAR MATRIX COMPOSITIONS FOR PREPARATION OF ENGINEERED TISSUES AND RELATED METHODS” (University of Washington, priority 2019, published 2021)
Read-outs that look alike come from different tables or passages of the source.

Columns and labels:
[1] = test system: cardiac tissues bioprinted using dECM bioink (hiPSC-derived cardiomyocytes and HS27A stromal cells); assay: Cisapride cardiotoxicity dose response, FluoVolt imaging, tissues printed with dECM bioink; assay type: cell-based; conditions: Homo sapiens, HS-27A
Protocol: (§1) Tissues and support structures were bioprinted using a commercially available dual-extruder pneumatic bioprinter (Allevi BioBot 1). Five pairs of polycaprolactone (PCL) posts 1 mm in diameter, 5 mm tall, and 10 mm apart were printed in each well of a standard 6-well plate. An approximately 2 mm thick layer of NOA 83H resin (Norland Optical Adhesives) was then deposited onto the bottom of each well and cured by a 30 min exposure to UV light. Plates containing anchored posts were then sterilized by immersion in 70% v/v ethanol and subsequent UV light exposure. Sacrificial wells 12 mm×5 mm×1 mm (length×width×depth) were then printed around each post pair using 40% w/v Pluronic F-127, followed by approximately 50 μL of cell-laden hydrogel bioinks with the same cell densities as used in the EHT platform (20×10^6 hiPSC-derived cardiomyocytes/mL and 5×10^6 HS27A stromal cells/mL). Completed plates were then incubated at 37° C. and 5% CO2 for approximately 60 min, after which 5 mL of RPMI/B-27 with insulin (supplemented with Y-27632 dihydrochloride ROCK inhibitor and 1% penicillin/streptomycin) was added to each well. After 24 hrs, the media was replaced with fresh RPMI/B-27 with insulin and media changes were conducted every other day until tissues were used for drug screening. Exemplary cardiac tissues were bioprinted using dECM and dECM-rGO bioinks disclosed herein and cultured for 14 and 35 days. At these time points, tissues were washed with warm PBS before being incubated in medium containing a 1000X dilution of stock FluoVolt for 1 hr at 37° C., after which tissues were washed twice with warm Tyrode's buffer and incubated in Tyrode's containing 0.01, 0.1, 1, 5, 10, 50, 100, and 1000 nM cisapride (Sigma-Aldrich) dissolved in dimethyl sulfoxide (DMSO) for 45 mins. A group of tissues were also incubated in Tyrode's containing no cisapride, but an equivalent volume of DMSO (1 μL DMSO/mL Tyrode's). Functional response of these tissues to administered drug was assessed using FluoVolt dye in conjunction with live-tissue imaging as described above. Change in beat interval (ABI) was determined by measuring that duration of elapsed time between individual beats (the beat interval) and calculating the difference in this interval from one beat to the next. APD90 values were calculated as described above. Best-fit dose response curves were calculated using GraphPad Prism software. Drug concentration values were first transformed to a log scale and APD90 or ABI values were normalized such that the lowest value was set at 0% and the largest value at 100%. Finally, the normalized data was fit to a non-linear dose response curve using a least squares fit.

[2] = reported ETPC range; cited from earlier work
[3] = test system: cardiac tissues bioprinted using dECM-rGO bioink (hiPSC-derived cardiomyocytes and HS27A stromal cells); assay: Cisapride cardiotoxicity dose response, FluoVolt imaging, tissues printed with dECM-rGO bioink; assay type: cell-based; conditions: Homo sapiens, HS-27A
Protocol: as §1

[4] = 336 h, Day 14 of culture, change in beat interval, read-out: IC50 (ΔBI)
[5] = Day 35 of culture, change in beat interval, read-out: IC50 (ΔBI)
[6] = Day 35 of culture, read-out: IC50 (APD90)

**Q.** With COc1cc(N)c(Cl)cc1C(=O)NC1CCN(CCCOc2ccc(F)cc2)CC1OC (stereo not drawn) [cisapride] as the compound, how does the IC50 [1, 4] read?
**A.** 73.4 ± 1.4 nM

**Q.** What about the IC50 ([1]; 336 h, Day 14 of culture, read-out: IC50 (APD90)) of the same compound?
**A.** 61.8 ± 1.4 nM

**Q.** And the IC50 [1, 5]?
**A.** 7.3 ± 1.2 nM

**Q.** What about the IC50 [1, 6] of the same compound?
**A.** 2 ± 1.3 nM

**Q.** And the “effective therapeutic plasma concentration (ETPC)” value [2]?
**A.** 2.6 to 4.9 nM

**Q.** What about the IC50 [3, 4] of the same compound?
**A.** 8.6 ± 1.2 nM

**Q.** And the IC50 ([3]; Day 14 of culture, 45 min cisapride, read-out: IC50 (APD90))?
**A.** 2.5 ± 1.3 nM

**Q.** And the IC50 [3, 5]?
**A.** 3.1 ± 1.3 nM

**Q.** What about the IC50 [3, 6] of the same compound?
**A.** 1.8 ± 1.4 nM
